Results taken from patent US7772271B2 (priority 2004, dated 2010).

SMILES | melting point [°C]
CCCS(=O)(=O)Nc1ccc(-c2c(C#N)c3ccc(N4CCN(CC5CC5)CC4)cc3n2CC)cc1 [Compound 1411] | 173 to 174
CCn1c(-c2ccc(NC(=O)C3CC3)cc2)c(C#N)c2ccc(OCCN(C)CCN(C)C)cc21 [Compound 1413] | 90.2 to 95.4
CCn1c(-c2ccc(NC(=O)C3CC3)cc2)c(C#N)c2ccc(OCCN3CCN(CCOC)CC3)cc21 [Compound 1414] | 163.9 to 168.8
CCCNC(=O)Nc1ccc(-c2c(C#N)c3ccc(OCc4csc(C)n4)cc3n2CC)cc1 [Compound 1415] | 220 to 222
COCCOc1ccc2c(C#N)c(-c3ccc(NS(=O)(=O)C4CC4)cc3)n(C3CCC3)c2c1 [Compound 1417] | 192 to 193
CC(C)OC(=O)Nc1ccc(-c2c(C#N)c3ccc(OCC(O)CN4CCOCC4)cc3n2C2CCC2)cc1 (stereo not drawn) [Compound 1418] | 183 to 185
CC(C)NC(=O)Nc1ccc(-c2c(C#N)c3ccc(OCC(O)Cn4ccnc4)cc3n2C2CCC2)cc1 (stereo not drawn) [Compound 1421] | 138 to 140
CCOc1ccc2c(C#N)c(-c3ccc(NC(=O)OCc4cnccn4)cc3)n(C3CCC3)c2c1 [Compound 1426] | 159 to 164
CC(C)OC(=O)Nc1ccc(-c2c(C#N)c3ccc(OCCCNC4CC4)cc3n2C2CCC2)cc1 [Compound 1430] | 122 to 125
CCOc1ccc2c(C#N)c(-c3ccc(NC(=O)OCc4cccnc4)cc3)n(C3CCC3)c2c1 [Compound 1432] | 187 to 194
CC(C)OC(=O)Nc1ccc(-c2c(C#N)c3ccc(OCCNC4CCC4)cc3n2C2CCC2)cc1 [Compound 1434] | 221 to 223
CC(C)OC(=O)Nc1ccc(-c2c(C#N)c3ccc(OCCN4CCC(O)C4)cc3n2C2CCC2)cc1 (stereo not drawn) [Compound 1435] | 161 to 165
COCCOc1ccc2c(C#N)c(-c3ccc(NC(=O)OC(c4ccccc4)C4CC4)cc3)n(C3CC3)c2c1 (stereo not drawn) [Compound 1437] | 74 to 76
COCCOc1ccc2c(C#N)c(-c3ccc(NC(=O)OC(C)c4ccccc4)cc3)n(C3CC3)c2c1 (stereo not drawn) [Compound 1438] | 76 to 79
COCCOc1ccc2c(C#N)c(-c3ccc(NC(=O)OC(C)c4ccc(F)cc4)cc3)n(C3CC3)c2c1 (stereo not drawn) [Compound 1439] | 74 to 76
CCOc1ccc2c(C#N)c(-c3ccc(NC(=O)NC(C)COC)cc3)n(C3CCC3)c2c1 (stereo not drawn) [Compound 1441] | 192 to 196

SMILES | melting point [°C]
CC(C)OC(=O)Nc1ccc(-c2c(C#N)c3ccc(OC4CCN(Cc5ccccc5)C4)cc3n2C2CCC2)cc1 (stereo not drawn) [Compound 1442] | 144 to 145
N#Cc1c(-c2ccc(N)cc2)n(C2CC2)c2cc(OC3CCOC3)ccc12 (stereo not drawn) [Compound 1443] | 199 to 201
CC(OC(=O)Nc1ccc(-c2c(C#N)c3ccc(OC4CCOC4)cc3n2C2CC2)cc1)c1ccccc1 (stereo not drawn) [Compound 1445] | 112 to 115
CC(C)C(C)OC(=O)Nc1ccc(-c2c(C#N)c3ccc(OC4CCOC4)cc3n2C2CC2)cc1 (stereo not drawn) [Compound 1446] | 207 to 208
CC(OC(=O)Nc1ccc(-c2c(C#N)c3ccc(OC4CCOC4)cc3n2C2CC2)cc1)C(C)(C)C (stereo not drawn) [Compound 1447] | 220 to 222
CC(NC(=O)Nc1ccc(-c2c(C#N)c3ccc(OC4CCOC4)cc3n2C2CC2)cc1)c1ccc(F)cc1 (stereo not drawn) [Compound 1448] | 182 to 184
CC(C)OC(=O)Nc1ccc(-c2c(C#N)c3ccc(OC4CCOC4)cc3n2C2CC2)cc1 (stereo not drawn) [Compound 1449] | 180 to 181
CCCS(=O)(=O)Nc1ccc(-c2c(C#N)c3ccc(OCCCO)cc3n2C2CCC2)cc1 [Compound 1450] | 162 to 163
CCCS(=O)(=O)Nc1ccc(-c2c(C#N)c3ccc(OCCO)cc3n2C2CCC2)cc1 [Compound 1451] | 163 to 164
CC(OC(=O)Nc1ccc(-c2c(C#N)c3ccc(OC4CCOC4)cc3n2C2CCC2)cc1)C1CC1 (stereo not drawn) [Compound 1453] | 183 to 184
CC(C)C(OC(=O)Nc1ccc(-c2c(C#N)c3ccc(OC4CCOC4)cc3n2C2CCC2)cc1)C(C)C (stereo not drawn) [Compound 1454] | 183 to 184
N#Cc1c(-c2ccc(NC(=O)OC3CCC3)cc2)n(C2CCC2)c2cc(OC3CCOC3)ccc12 (stereo not drawn) [Compound 1455] | 183 to 184
CC(OC(=O)Nc1ccc(-c2c(C#N)c3ccc(OC4CCOC4)cc3n2C2CCC2)cc1)c1ccccc1 (stereo not drawn) [Compound 1456] | 183 to 184
CC(OC(=O)Nc1ccc(-c2c(C#N)c3ccc(OC4CCOC4)cc3n2C2CCC2)cc1)C(F)(F)F (stereo not drawn) [Compound 1457] | 183 to 184
CCC(OC(=O)Nc1ccc(-c2c(C#N)c3ccc(OC4CCOC4)cc3n2C2CCC2)cc1)C(C)C (stereo not drawn) [Compound 1458] | 183 to 184
CCC(C)C(C)OC(=O)Nc1ccc(-c2c(C#N)c3ccc(OC4CCOC4)cc3n2C2CCC2)cc1 (stereo not drawn) [Compound 1459] | 183 to 184

Other lines, results leading:

melting point [°C] | SMILES
183 to 184 | CC(OC(=O)Nc1ccc(-c2c(C#N)c3ccc(OC4CCOC4)cc3n2C2CCC2)cc1)C1CCCC1 (stereo not drawn) [Compound 1460]
183 to 184 | CC(C)NC(=O)Nc1ccc(-c2c(C#N)c3ccc(OC4CCOC4)cc3n2C2CCC2)cc1 (stereo not drawn) [Compound 1462]
170 to 172 | CC(C)Nc1ccc(-c2c(C#N)c3ccc(OC4CCOC4)cc3n2C2CC2)cc1 (stereo not drawn) [Compound 2150]
189 to 191 | CCN(CC)C(=O)c1ccc2c(C#N)c(-c3ccc(NC(=O)OC(C)C)cc3)n(C3CCC3)c2c1 [Compound 2186]
194 to 195 | CCOc1ccc2c(C#N)c(-c3ccc(C(=O)NCCc4ccccn4)cc3)n(C3CCC3)c2c1 [Compound 2250]
172 to 173 | CCOc1ccc2c(C#N)c(-c3ccc(C(=O)N4CC[C@@H](O)C4)cc3)n(C3CCC3)c2c1 [Compound 2251]
160 to 163 | CCCN(CCC)C(=O)c1ccc2c(C#N)c(-c3ccc(NC(=O)O[C@H](C)C4CC4)cc3)n(C3CCC3)c2c1 [Compound 2271]
166 to 168 | CCN(CC)C(=O)c1ccc2c(C#N)c(-c3ccc(NC(=O)O[C@H](C)C4CC4)cc3)n(C3CCC3)c2c1 [Compound 2272]
118 to 121 | CCC(C)NC(=O)c1ccc2c(C#N)c(-c3ccc(NC(=O)O[C@H](C)C4CC4)cc3)n(C3CCC3)c2c1 (stereo partly drawn) [Compound 2273]
114 to 117 | CCN(C)C(=O)c1ccc2c(C#N)c(-c3ccc(NC(=O)O[C@H](C)C4CC4)cc3)n(C3CCC3)c2c1 [Compound 2275]
118 to 120 | C[C@@H](OC(=O)Nc1ccc(-c2c(C#N)c3ccc(C(=O)N(C)C)cc3n2C2CCC2)cc1)C1CC1 [Compound 2276]
217 to 221 | COc1ccc2c(F)c(-c3ccc(NC(=O)NC(C)C)cc3)n(CC3CC3)c2c1 [Compound 2277]
205 to 207 | CCN(CC)C(=O)c1ccc2c(C#N)c(-c3ccc(NS(=O)(=O)C4CC4)cc3)n(C3CCC3)c2c1 [Compound 2294]
105 to 107 | CCC(C)NC(=O)c1ccc2c(C#N)c(-c3ccc(NS(=O)(=O)C4CC4)cc3)n(C3CCC3)c2c1 (stereo not drawn) [Compound 2295]
202 to 205 | CCN(C)C(=O)c1ccc2c(C#N)c(-c3ccc(NS(=O)(=O)C4CC4)cc3)n(C3CCC3)c2c1 [Compound 2296]
235 to 237 | CN(C)C(=O)c1ccc2c(C#N)c(-c3ccc(NS(=O)(=O)C4CC4)cc3)n(C3CCC3)c2c1 [Compound 2297]
204 to 205 | CC(C)OC(=O)Nc1ccc(-c2c(C#N)c3cc(OCCCn4cncn4)ccc3n2C2CCC2)cc1 [Compound 2605]

melting point [°C] | SMILES
148 to 150 | CC(C)OC(=O)Nc1ccc(-c2c(C#N)c3cc(OCCCn4cccn4)ccc3n2C2CCC2)cc1 [Compound 2606]
209 to 211 | CC(C)OC(=O)Nc1ccc(-c2c(C#N)c3cc(OCCCn4ccnc4)ccc3n2C2CCC2)cc1 [Compound 2607]
153 to 155 | COCCOc1ccc2c(C#N)c(-c3ccc(NC(=O)OC(C)C)cc3)n(C(C)C)c2c1 [Compound 2608]
165 to 166 | COCCOc1ccc2c(C#N)c(-c3ccc(NC(=O)OC4CCC4)cc3)n(C(C)C)c2c1 [Compound 2609]
181 to 183 | COCCOc1ccc2c(C#N)c(-c3ccc(NC(=O)OC4CCOC4)cc3)n(C(C)C)c2c1 (stereo not drawn) [Compound 2610]
115 to 116 | CCOCCOc1ccc2c(C#N)c(-c3ccc(NC(=O)OC(C)C)cc3)n(C3CCC3)c2c1 [Compound 2611]
148 to 150 | CCOCCOc1ccc2c(C#N)c(-c3ccc(NC(=O)NC(C)C)cc3)n(C3CCC3)c2c1 [Compound 2612]
141 to 142 | CCOCCOc1ccc2c(C#N)c(-c3ccc(NC(=O)OC(C)C4CC4)cc3)n(C3CCC3)c2c1 (stereo not drawn) [Compound 2613]
118 to 120 | CC(OC(=O)Nc1ccc(-c2c(C#N)c3ccc(OC4CCOCC4)cc3n2C2CCC2)cc1)C1CC1 (stereo not drawn) [Compound 2615]
127 to 129 | CCC(CC)OC(=O)Nc1ccc(-c2c(C#N)c3ccc(OC4CCOCC4)cc3n2C2CCC2)cc1 [Compound 2617]
96 to 98 | CC(OC(=O)Nc1ccc(-c2c(C#N)c3ccc(OC4CCOCC4)cc3n2C2CCC2)cc1)c1ccccc1 (stereo not drawn) [Compound 2618]
185 to 188 | CC(C)OC(=O)Nc1ccc(-c2c(C#N)c3cc(OCCn4ccnc4)ccc3n2C2CCC2)cc1 [Compound 2631]
122 to 124 | CCOCCOc1ccc2c(C#N)c(-c3ccc(NC(=O)OC(C)C(F)(F)F)cc3)n(C3CCC3)c2c1 (stereo not drawn) [Compound 2636]
196 to 197 | CC(C)OC(=O)Nc1ccc(-c2c(C#N)c3ccc(O[C@@H]4CCOC4)cc3n2C2CCC2)cc1 [Compound 2638]
93 to 95 | CC(OC(=O)Nc1ccc(-c2c(C#N)c3ccc(OCCCCn4ccnc4)cc3n2C2CCC2)cc1)c1ccc(F)cc1 (stereo not drawn) [Compound 2642]
168 to 169 | CC(OC(=O)Nc1ccc(-c2c(C#N)c3ccc(OCCCCn4cncn4)cc3n2C2CCC2)cc1)C(F)(F)F (stereo not drawn) [Compound 2643]
108 to 110 | CC(OC(=O)Nc1ccc(-c2c(C#N)c3ccc(OCCCCn4cncn4)cc3n2C2CCC2)cc1)c1ccc(F)cc1 (stereo not drawn) [Compound 2644]
